Measured values: patent US4904672A, “Derivatives of 3-hydroxyazabenzo[b]thiophene useful as 5-lipoxygenase inhibitors” (Merck & Co., Inc., priority 1988, dated 1990)

System: Brewer's yeast-induced hyperalgesia (pain response)
Test: Brewer's Yeast Hyperalgesia Assay in the rat
Type: in vivo, rat (female Sprague-Dawley)
Details: 3 mg/kg p.o.
Method: In this assay, which is sensitive to inhibition by lipoxygenase and cyclooxygenase inhibitors, compounds of formula I reduced the pain response induced by Brewer's yeast (Table 1a).
Groups of 10 female Sprague-Dawley rats, weighing 35-50 grams (Charles River Breeding Laboratories), were fasted overnight prior to testing. For each animal, 0.1 ml of the edema-inducing Brewer's yeast suspension (5% homogenate in physiological saline) was injected into the right hindpaw. Pain threshold was measured by applying pressure to the plantar surface of the hindpaw by means of a compressed air driven piston with a 2 mm. tip. Testing was carried out 3, 4, and 5 hours after the yeast injection. Compounds, prepared as homogenates in either 1% methylcellulose or aqueous vehicle, were administered orally 60 minutes before testing. A group of vehicle treated control animals was included in each experiment. Squeak pressure thresholds were measured and recorded for the compound and vehicle-treated groups of rats 3, 4, and 5 hours after administration of the Brewer's yeast (60 minutes after compound treatment). The estimation of analgesia was as follows: 1. the mean response pressure for the daily vehicle control group in the normal and inflammed foot was calculated; 2. for each compound treatment group, the number of animals with response pressures equal to or greater than 25 mm Hg was noted. These animals were considered to be analgesic.

Compound	% Inhibition (yeast hyperalgesia) [%]
COCC(=O)Oc1c(-c2ccccc2)sc2ncccc12 [R=(CO)CH2 OCH3, X1=H, X2=H]	50
CC(=O)Oc1c(-c2ccccc2)sc2nc(Cl)ccc12 [R=(CO)CH3, X1=6-Cl, X2=H]	40
COc1ccc2c(OC(C)=O)c(-c3ccccc3)sc2n1 [R=(CO)CH3, X1=6-OCH3, X2=H]	60
CC(=O)Oc1c(-c2ccccc2)sc2ncccc12 [R=(CO)CH3, X1=H, X2=H, 7-aza-3-acetyloxy-2-phenyl-benzo[b]thiophene]	60
CC(=O)Oc1c(-c2ccc(F)cc2)sc2ncccc12 [R=(CO)CH3, X1=H, X2=p-F, 7-aza-3-acetyloxy-2-(4-fluorophenyl)-benzo[b]thiophene]	70
COc1ccc(-c2sc3ncccc3c2OC(C)=O)cc1 [R=(CO)CH3, X1=H, X2=p-OCH3]	10
COc1ccc(-c2sc3ncccc3c2O)cc1 [R=H, X1=H, X2=p-OCH3]	60
